Values of other authors, collected in paper PMC2751796 (Pharmacology & therapeutics, 2009).

What was measured:
[1] = mouse, in vivo; cited from earlier work
Ent1 = conditions: mice; ref Lepist et al., 2008; cited from earlier work

SMILES | Brain uptake ratio in WT, untreated mice [1] | Decrease in brain AUC with nitrobenzyl-mercaptopurine ribonucleoside (Ent1)
CCC1(c2ccccc2)C(=O)NC(=O)NC1=O [Phenobarbital] | ∼ 0.27-0.4 | –
OC[C@H]1O[C@@H](n2cnc3c(N[C@@H]4CCOC4)ncnc32)[C@H](O)[C@@H]1O [tecadenoson] | – | 2.5 fold
